28 compounds from ChEMBL document CHEMBL4261541, “Synthesis and evaluation of oxindoles as promising inhibitors of the immunosuppressive enzyme indoleamine 2,3-dioxygenase 1” (Medchemcomm, 2017) can be followed below.

The subject of data set [1] is A549. The experiment in a line: Cytotoxicity against human A549 cells assessed as reduction in cell viability at 2 times IDO1 inhibitory IC50 after 48 hrs by MTT assay. Type of data set: functional, cell-based. For orientation: Tetrazolium assays rely on reduction of a dye to a coloured formazan, in cell work by metabolically active cells.
Data set [2] concerns the target T1, Indoleamine 2,3-dioxygenase 1 (Homo sapiens, UniProt P14902). Description: Inhibition of IFNgamma-stimulated IDO1 in human MDA-MB-231 cells preincubated for 4 hrs followed by tryptophan addition measured after 5 hrs by methylene blue dye based spectrophotometric method. Type of data set: cell-based.
Target sequence in this assay (P14902 whole entry): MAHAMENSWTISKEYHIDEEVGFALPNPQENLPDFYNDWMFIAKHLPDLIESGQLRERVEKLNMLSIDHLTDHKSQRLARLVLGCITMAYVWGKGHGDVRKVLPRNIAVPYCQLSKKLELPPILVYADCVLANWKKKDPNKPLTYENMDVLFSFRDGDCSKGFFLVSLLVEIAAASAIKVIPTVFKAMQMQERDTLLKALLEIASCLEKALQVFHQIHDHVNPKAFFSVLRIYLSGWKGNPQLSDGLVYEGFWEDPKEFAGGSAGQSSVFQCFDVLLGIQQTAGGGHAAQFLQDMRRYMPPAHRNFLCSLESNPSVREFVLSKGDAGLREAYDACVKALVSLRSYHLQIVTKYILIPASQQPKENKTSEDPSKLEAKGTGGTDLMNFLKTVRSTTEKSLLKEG
The species named for data set [3] is Homo sapiens. Description: Selectivity ratio of IC50 for human TDO to IC50 for human IDO1.
In data set [4] the test system is J774.A1. Description: Cytotoxicity against mouse J774A.1 cells assessed as reduction in cell viability at 2 times IDO1 inhibitory IC50 after 48 hrs by MTT assay. To be noted: j774.a1, 48 h. Type of data set: cell-based.
Data set [5] has as its system HeLa. The experiment in a line: Cytotoxicity against human HeLa cells assessed as reduction in cell viability at 2 times IDO1 inhibitory IC50 after 48 hrs by MTT assay. It is filed as functional, cell-based.
Data set [6] addresses Tryptophan 2,3-dioxygenase (Homo sapiens, UniProt P48775). Description: Inhibition of recombinant human TDO assessed as reduction in conversion of L-tryptophan to kynurenine by methylene blue dye based spectrometric method.
Data set [7] has as its target T1, Indoleamine 2,3-dioxygenase 1. Description: Uncompetitive inhibition of recombinant human IDO1 assessed as reduction in conversion of L-tryptophan to N-formylkynurenine at 200 to 1500 nM by methylene blue dye based spectrometric method.
Target sequence in this assay (P14902 whole entry, looked up): as the sequence (P14902 whole entry) above
Data set [8] has as its system MDA-MB-231. The experiment in a line: Cytotoxicity against human MDA-MB-231 cells assessed as reduction in cell viability at 2 times IDO1 inhibitory IC50 after 48 hrs by MTT assay. Type of data set: functional, cell-based.
Data set [9] deals with MDA-MB-231. The experiment in a line: Cytotoxicity against human MDA-MB-231 cells assessed as induction of morphological changes at 2 times IDO1 inhibitory IC50 after 48 hrs by cytell imaging analysis. Type of data set: functional, cell-based.
Data set [10] concerns the target T1, Indoleamine 2,3-dioxygenase 1. Description: Inhibition of recombinant human IDO1 assessed as reduction in conversion of L-tryptophan to kynurenine by methylene blue dye based spectrometric method.
Target sequence in this assay (P14902 whole entry): as above
For data set [11] the target is unchanged. Description: Binding affinity to human ferrous-IDO1 assessed as blue shift in soret peak at 50 uM by UV-Visible spectrophotometric method.
Target sequence in this assay (P14902 whole entry, looked up): as the sequence (P14902 whole entry) above
Data set [12] has the same target. The experiment in a line: Binding affinity to human ferric-IDO1 assessed as blue shift in soret peak at 50 uM by UV-Visible spectrophotometric method.
Target sequence in this assay (P14902 whole entry, looked up): as the sequence (P14902 whole entry) above
Data set [13] shares this target. The experiment in a line: Competitive inhibition of recombinant human IDO1 assessed as reduction in conversion of L-tryptophan to N-formylkynurenine at 200 to 1500 nM by methylene blue dye based spectrometric method.
Target sequence in this assay (P14902 whole entry, looked up): as the sequence (P14902 whole entry) above

One may read the EC50 as the concentration giving half of the maximal effect. Low values mean greater potency, high ones weaker potency. Usually IC50 stands for the concentration that inhibits the measured activity by half.

Calls of active or inactive are those of the source. The calls are words filed in the database; no cut-off is given here.

Chain of Tryptophan 2,3-dioxygenase (P48775 whole entry): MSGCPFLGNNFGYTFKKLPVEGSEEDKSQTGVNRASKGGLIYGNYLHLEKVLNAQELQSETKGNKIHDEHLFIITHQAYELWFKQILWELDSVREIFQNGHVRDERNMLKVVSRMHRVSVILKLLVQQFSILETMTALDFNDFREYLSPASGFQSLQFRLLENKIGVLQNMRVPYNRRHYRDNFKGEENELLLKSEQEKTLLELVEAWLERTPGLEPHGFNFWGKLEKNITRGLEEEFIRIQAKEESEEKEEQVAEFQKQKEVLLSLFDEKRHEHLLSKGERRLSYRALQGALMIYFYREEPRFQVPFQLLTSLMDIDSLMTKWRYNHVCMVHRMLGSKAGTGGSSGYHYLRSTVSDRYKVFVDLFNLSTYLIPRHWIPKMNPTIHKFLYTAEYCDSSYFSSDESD

For the compound `O=C1Nc2ccccc2/C1=N/Nc1ccc(Cl)cc1`, the result in data set [1], in data set [5], in data set [8] and in data set [9] was inactive. In addition, in data set [2], the EC50 amounted to 0.42 µM. Moreover, the Ratio IC50 in data set [3] was 85. The Activity entry in data set [4] is reported as “Non-Toxic”. In addition, the results for the IC50 in [6] and in data set [10] were 53.4 µM and 0.63 µM, respectively. Besides, the inhibition result in [7] is “Active”.

Turning to `CC(=O)/C=C1\C(=O)Nc2ccccc21`, in [10], the IC50 came out at 1.69 µM.

Regarding `NCCC1C(=O)Nc2ccccc21` (stereo unspecified), the half-inhibitory concentration (IC50) in data set [10] came out at 3.97 µM.

For `O=C(N[C@@H](CC1C(=O)Nc2ccccc21)C(=O)O)OCc1ccccc1` (stereo partly specified), the outcome in data set [1], in data set [5], in data set [8] and in data set [9] was inactive. Further, the inhibition result in data set [11] and in data set [13] was “Active” each time. Also, in [12], the outcome was Active. For the same compound, the EC50 in [2] was 1.26 µM. Moreover, the Ratio IC50 in data set [3] is 21. In [4], the Activity result is “Non-Toxic”. Further, the IC50 in data set [6] is 27.2 µM; in data set [10], 1.28 µM.

With `Cn1cc(C[C@H](N)C(=O)O)c2ccccc21`, the outcome in [8] and in data set [9] was inactive.

With `O=C1Nc2ccccc2/C1=N\c1ccc(Cl)cc1`, in [10], the IC50 is 2.56 µM.

As to `CC(=O)/C=C1\C(=O)Nc2ccc(Cl)cc21`, the result in data set [1], in data set [5], in [8] and in data set [9] was inactive. The same compound returned an EC50 in data set [2] of 0.46 µM. Besides, the Ratio IC50 in [3] is 152. Besides, the Activity entry in data set [4] is “Non-Toxic”. Besides, the results for the half-inhibitory concentration (IC50) in data set [6] and in data set [10] were 54.7 µM and 0.36 µM, respectively. Also, the inhibition entry in data set [13] is “Active”.

`O=C(N[C@@H](CC1C(=O)Nc2ccccc21)C(=O)O)c1ccccc1` (mixture of isomers): the IC50 in data set [10] was 1.58 µM.

With `NC(=O)[C@@H](N)CC1C(=O)Nc2ccccc21` (stereo partly specified), in [10], the IC50 is 8.33 µM.

For `O=C1Nc2ccccc2/C1=N/Nc1cccc([N+](=O)[O-])c1`, in data set [10], the IC50 was determined as 3.74 µM.

Consider `O=C1Nc2ccccc2/C1=N/Nc1ccccc1C(F)(F)F`, for which the Ratio IC50 in [3] worked out at 24. Moreover, the 50% inhibitory concentration (IC50) in data set [6] was found to be 38.3 µM; in data set [10] it was 1.58 µM.

With `O=C1Nc2ccccc2/C1=N/c1ccccc1Br`, in data set [3], the Ratio IC50 is 37. The IC50 in [6] amounted to 46.2 µM; in data set [10], 1.24 µM. In [13], the inhibition result is “Active”.

In the case of `CC(=O)CC(=O)CC1(O)C(=O)Nc2ccccc21` (stereo unspecified), the result in data set [1], in data set [5], in [8] and in [9] was inactive. In addition, the inhibition result in data set [11] and in [13] was “Active” in each case. In addition, the Activity in data set [12] was 9 nm; in [4] it was “Non-Toxic”. Besides, the EC50 in [2] was found to be 0.49 µM. Besides, the Ratio IC50 in [3] was 124. Besides, the figures for the IC50 in data set [6] and in [10] were 56.1 µM and 0.45 µM, respectively.

For the compound `O=C(N[C@@H](CC1C(=O)Nc2ccccc21)C(=O)OCc1ccccc1)OCc1ccccc1` (stereo partly specified), in data set [10], the IC50 came out at 2.25 µM.

As for `CC(=O)CC(=O)CC1(O)C(=O)Nc2ccc(Cl)cc21` (stereo unspecified), the inhibition entry in data set [7] was “Active”. Further, the IC50 in data set [10] amounted to 0.89 µM.

For `CC(C)(C)OC(=O)N[C@@H](CC1C(=O)Nc2ccccc21)C(=O)O` (stereo partly specified), in data set [10], the IC50 came to 1.95 µM.

Take `Cc1ccc(S(=O)(=O)N/N=C2\C(=O)Nc3ccccc32)cc1`: the Ratio IC50 in data set [3] was determined as 30. In addition, the IC50 in data set [6] was 52.9 µM; in data set [10], 1.78 µM.

As for `O=C1Nc2ccccc2/C1=N/Nc1cccc(Cl)c1`, the Ratio IC50 in data set [3] was found to be 31.

On to `CC(=O)N[C@@H](CC1C(=O)Nc2ccccc21)C(=O)O` (mixture of isomers), for which the outcome in data set [1], in data set [5], in data set [8] and in data set [9] was inactive. For the same compound, the inhibition entry in data set [11] and in [13] was “Active” each time. Moreover, the result in data set [12] was Active. In addition, the EC50 in data set [2] was determined as 0.48 µM. Also, the Ratio IC50 in data set [3] came to 135. For the same compound, the Activity result in [4] is on record as “Non-Toxic”. Also, the IC50 in data set [6] was determined as 83.5 µM; in [10], 0.62 µM.

Regarding `N[C@@H](CC1C(=O)Nc2ccccc21)C(=O)O` (stereo partly specified), in data set [3], the Ratio IC50 is 18. The IC50 in [6] came out at 60.2 µM; in data set [10], 3.39 µM.

Turning to `O=C(NCCC1C(=O)Nc2ccccc21)OCc1ccccc1` (stereo unspecified), in [3], the Ratio IC50 was found to be 25. For the same compound, the IC50 in [6] was found to be 58.3 µM; in data set [10] it was 2.31 µM.

`N[C@@H](CC1C(=O)Nc2ccccc21)C(=O)OCc1ccccc1` (stereo partly specified): the IC50 in data set [10] was 13.6 µM.

`O=C1N=c2ccccc2=C1NNc1cccc(Cl)c1`: the values for the IC50 in data set [6] and in data set [10] were 46.8 µM and 1.51 µM, respectively.

Take `O=C1CCCC(=O)C1C1(O)C(=O)Nc2ccccc21` (stereo unspecified): the 50% inhibitory concentration (IC50) in data set [10] came out at 4.73 µM.

For the compound `CC(=O)CC1(O)C(=O)Nc2ccc(Cl)cc21` (stereo unspecified), in data set [10], the IC50 came to 1.97 µM.

For `O=C1Nc2ccccc2C1=NNc1ccccc1`, in data set [10], the IC50 was 1.95 µM.

Consider `CCOC(=O)C(C(=O)OCC)=C1C(=O)Nc2ccccc21`, for which the Ratio IC50 in data set [3] stood at 76. Moreover, the results for the 50% inhibitory concentration (IC50) in data set [6] and in [10] were 71 µM and 0.93 µM, respectively.

On to `CC(=O)CC(=O)/C=C1\C(=O)Nc2ccc(Cl)cc21`, for which the outcome in data set [1], in [5], in data set [8] and in data set [9] was inactive. The inhibition result in [11] and in data set [13] was “Active” throughout. In addition, the result in [12] was Active. In addition, the EC50 in data set [2] came out at 0.33 µM. Besides, the Ratio IC50 in [3] is 210. In [4], the Activity result is “Non-Toxic”. Moreover, the IC50 in [6] amounted to 39.9 µM; in [10], 0.19 µM.
